These results are taken from patent US8455547B2, “Substituted cyclopentanes having prostaglandin activity” (Allergan, Inc., priority 2008, dated 2013).

Test [1] deals with T1, EP2 (Homo sapiens, UniProt P43116). The experiment in a line: EP2 cAMP assay. The test is classed as cell-based. From the text: (§1) U.S. patent application Ser. No. 11/553,143, filed on Oct. 26, 2006, incorporated by reference herein, describes the methods used to obtain the in vitro data in Tables 1 and 2 below.
(Changes in cAMP serve as a functional read-out for many G protein-coupled receptors.)

Test [2] addresses T1, EP2. Put plainly: EP2 Ca2+ signal assay. The conditions noted are these: for EP2 Ca2+ signal % PGE2: relative to PGE2. The class given is cell-based.
Text: as §1

Test [3] concerns the target T1, EP2. Put plainly: EP2 binding assay.
Text: as §1

For test [4], the target named is T2, EP4 (Homo sapiens, UniProt P35408). The experiment in a line: EP4 Ca2+ signal assay. The class given is cell-based. Particulars: for EP4 Ca2+ signal % PGE2: relative to PGE2.
Text: as §1

Test [5] addresses T2, EP4. The experiment in a line: EP4 binding assay.
Text: as §1

The target in test [6] is T3, EP1 (Homo sapiens, UniProt P34995).
T3 sequence (P34995 1-402): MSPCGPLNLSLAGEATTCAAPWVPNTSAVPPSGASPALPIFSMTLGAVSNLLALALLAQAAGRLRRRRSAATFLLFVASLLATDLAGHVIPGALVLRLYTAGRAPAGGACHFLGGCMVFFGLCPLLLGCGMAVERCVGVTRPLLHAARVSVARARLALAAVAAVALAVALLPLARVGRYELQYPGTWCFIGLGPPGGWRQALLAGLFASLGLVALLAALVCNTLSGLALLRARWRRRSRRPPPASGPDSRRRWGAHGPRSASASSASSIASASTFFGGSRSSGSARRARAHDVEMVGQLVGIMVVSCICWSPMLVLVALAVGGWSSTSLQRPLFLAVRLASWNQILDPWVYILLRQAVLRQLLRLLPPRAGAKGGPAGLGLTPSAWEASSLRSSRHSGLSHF
Put plainly: EP1 functional assay. The test is classed as cell-based.
Text: as §1

The target in test [7] is T4, EP3 (Homo sapiens, UniProt P43115).
T4 sequence (P43115 1-390): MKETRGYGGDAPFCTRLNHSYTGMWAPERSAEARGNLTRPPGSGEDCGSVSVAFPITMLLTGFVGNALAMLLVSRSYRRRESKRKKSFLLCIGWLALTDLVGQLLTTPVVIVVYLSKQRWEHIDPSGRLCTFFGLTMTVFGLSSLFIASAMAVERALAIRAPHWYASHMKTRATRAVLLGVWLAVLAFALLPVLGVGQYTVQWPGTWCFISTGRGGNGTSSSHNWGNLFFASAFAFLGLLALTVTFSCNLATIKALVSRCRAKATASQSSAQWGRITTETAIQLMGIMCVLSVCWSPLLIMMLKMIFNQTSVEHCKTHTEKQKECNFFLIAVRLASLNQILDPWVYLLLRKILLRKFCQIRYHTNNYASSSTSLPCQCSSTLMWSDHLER
Put plainly: EP3 functional assay. The test is classed as cell-based.
Text: as §1

The target of test [8] is T5, TP (Homo sapiens, UniProt P21731).
T5 sequence (P21731 1-343): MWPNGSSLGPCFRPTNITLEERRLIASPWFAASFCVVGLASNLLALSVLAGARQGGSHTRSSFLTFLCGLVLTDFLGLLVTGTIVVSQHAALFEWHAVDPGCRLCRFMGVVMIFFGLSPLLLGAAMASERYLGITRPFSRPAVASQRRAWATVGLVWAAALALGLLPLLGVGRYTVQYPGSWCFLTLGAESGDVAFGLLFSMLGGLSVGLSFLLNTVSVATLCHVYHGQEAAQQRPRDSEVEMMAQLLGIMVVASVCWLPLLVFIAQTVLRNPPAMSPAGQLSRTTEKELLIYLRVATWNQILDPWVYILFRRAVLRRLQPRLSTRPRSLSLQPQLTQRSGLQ
The experiment in a line: TP functional assay. The test is classed as cell-based.
Text: as §1

T1 sequence (P43116 whole entry): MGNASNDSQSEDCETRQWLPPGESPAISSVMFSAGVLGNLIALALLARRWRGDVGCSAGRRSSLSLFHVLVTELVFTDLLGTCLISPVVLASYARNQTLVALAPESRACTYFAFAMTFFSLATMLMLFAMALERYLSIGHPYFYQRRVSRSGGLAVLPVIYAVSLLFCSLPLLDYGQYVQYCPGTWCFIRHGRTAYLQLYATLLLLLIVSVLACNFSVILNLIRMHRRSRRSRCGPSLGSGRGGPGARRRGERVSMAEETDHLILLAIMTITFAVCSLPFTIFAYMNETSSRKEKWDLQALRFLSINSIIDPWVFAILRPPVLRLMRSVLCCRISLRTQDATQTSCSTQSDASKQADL
T2 sequence (P35408 whole entry): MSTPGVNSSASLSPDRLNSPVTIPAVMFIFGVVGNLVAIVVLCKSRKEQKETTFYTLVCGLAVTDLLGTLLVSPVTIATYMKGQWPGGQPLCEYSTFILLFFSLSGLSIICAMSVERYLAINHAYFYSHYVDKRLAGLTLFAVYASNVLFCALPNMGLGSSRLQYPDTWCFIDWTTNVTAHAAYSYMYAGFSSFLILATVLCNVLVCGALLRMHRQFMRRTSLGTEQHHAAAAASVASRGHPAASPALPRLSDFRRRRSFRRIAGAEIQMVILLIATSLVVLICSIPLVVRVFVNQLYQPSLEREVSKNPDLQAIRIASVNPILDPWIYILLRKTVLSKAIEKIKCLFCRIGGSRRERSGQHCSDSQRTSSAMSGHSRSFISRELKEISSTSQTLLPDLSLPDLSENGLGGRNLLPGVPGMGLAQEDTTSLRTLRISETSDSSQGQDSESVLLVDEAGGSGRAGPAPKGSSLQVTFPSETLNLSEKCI

The term EC50 denotes the concentration that produces a half-maximal response. Low readings indicate greater potency, high ones weaker potency. Take `C[C@@H](O)CCC[C@H](O)/C=C/[C@@H]1[C@@H](C/C=C\CCCC(=O)O)[C@H](Cl)C[C@H]1O`: the 50% effective concentration (EC50) in test [1] was determined as 0.03 nM; in test [2], 4 nM; in test [3] it was 25 nM; in test [4] it was 46 nM; in test [5], 885 nM; in test [6] it was 13 nM. The EC50 is 6 nM in test [7] and 178 nM in test [8]. Also, the “EP2 Ca2+ signal % PGE2” value in test [2] came to 107%. Moreover, the “EP2 Binding % Inh” value in test [3] stood at 99%. In test [4], the “EP4 Ca2+ signal % PGE2” value was determined as 107%. The “EP4 Binding % Inh” value in test [5] is listed as 81%.
For the molecule `C[C@@H](O)CCC[C@H](O)/C=C/[C@@H]1[C@@H](CCCCCCC(=O)O)[C@H](Cl)C[C@H]1O`, the half-maximal effective concentration (EC50) in test [1] was 1.47 nM. Further, in test [2], the EC50 turned out to be 109 nM and the “EP2 Ca2+ signal % PGE2” value is 100%. In addition, in test [3], the EC50 came out at 1220 nM and the “EP2 Binding % Inh” value is 78%. In test [4], the EC50 was determined as 727 nM and the “EP4 Ca2+ signal % PGE2” value was found to be 99%. Besides, the “EP4 Binding % Inh” value in test [5] is 29%.
